Data: patent publication US12486271B2, “Solid forms of a toll-like receptor modulator” (GILEAD SCIENCES, INC., priority 2014, dated 2025)

What was measured:
[1] = Variable temperature XRD (VT XRD) experiment: form stability on cooling; type: physicochemical; details: cooled to 25° C. after generation by heating
From the text: X-ray Powder Diffraction (XRPD). The Rigaku Smart-Lab® X-ray diffraction system was configured for reflection BraggBrentano geometry using a line source X-ray beam. The x-ray source is a Cu Long Fine Focus tube that was operated at 40 kV and 44 mA. That source provides an incident beam profile at the sample that changes from a narrow line at high angles to a broad rectangle at low angles. Beam conditioning slits were used on the line X-ray source to ensure that the maximum beam size is less than 10 mm both along the line and normal to the line. The Bragg-Brentano geometry is a para-focusing geometry controlled by passive divergence and receiving slits with the sample itself acting as the focusing component for the optics. The inherent resolution of Bragg-Brentano geometry is governed in part by the diffractometer radius and the width of the receiving slit used. Typically, the Rigaku Smart-Lab is operated to give peak widths of 0.1°2θ or less. The axial divergence of the X-ray beam is controlled by 5.0-degree Soller slits in both the incident and diffracted beam paths. Powder samples were prepared in a low background Si holder using light manual pressure to keep the sample surfaces flat and level with the reference surface of the sample holder. The single-crystal, Si, low-background holder has a small circular recess (7 mm diameter and about 1 mm depth) that holds between 5 and 10 mg of powdered material. Each sample was analyzed from 2 to 40°2θ using a continuous scan of 3°2θ per minute with an effective step size of 0.02°2θ. Form III was generated at 138° C. from Form I in a variable temperature XRD (VT XRD) experiment. […] Form III is characterized by the X-ray powder diffraction pattern in FIG. 9, and the differential scanning calorimetry plot in FIG. 11 showing endotherms at about 181 and 271° C. (decomposition). Form IV was generated between 95 and 110° C. from Form II in a variable temperature XRD experiment. […] is characterized by the X-ray powder diffraction pattern in FIG. 13.

[2] = Competition slurry experiment of Form I and Form III in methanol; type: physicochemical; details: 10 mg of each of Form I and Form III in methanol
HCV = details: once daily 7-day treatment, HCV infected patients; cited from earlier work

SMILES | Solid form stability when cooled to 25° C. in variable temperature XRD [1] | Solid form stability when cooled to 25° C. in variable temperature XRD ([1]; listed as Compound I Form III) | Time for conversion of Form III back to Form I in competition slurry [2] [weeks] | Plasma virus concentrations (HCV)
CCCCOc1nc(N)c2c(n1)N(Cc1cccc(CN3CCCC3)c1)CC(=O)N2 [Form III, 4-amino-2-butoxy-8-(3-(pyrrolidin-1-ylmethyl)benzyl)-7,8-dihydropteridin-6(5H)-one] | stable when cooled to 25 °C and does not convert back to Form I | remains as Form III | ≤ 2 | –
CCCCOc1nc(N)c2c(n1)N(Cc1cccc(CN3CCCC3)c1)CC(=O)N2 [Form IV, 4-amino-2-butoxy-8-(3-(pyrrolidin-1-ylmethyl)benzyl)-7,8-dihydropteridin-6(5H)-one] | converts back to Form II when cooled to 25 °C | – | – | –
Nc1nc(=O)c2sc(=O)n([C@@H]3O[C@H](CO)[C@@H](O)[C@H]3O)c2[nH]1 [isatoribine] | – | – | – | reduces plasma virus concentrations
